What was measured:
[1] = molecular target: T1, TSPO (Rattus norvegicus, UniProt P16257); conditions: competing drug 1 mg/Kg i.v. 5 min prior to tracer; rats, 30 min p.i.; vs controls
Procedure: The saturation effect of [^123I]-CLINME uptake was studied in competition experiments by injecting CLINME (1 mg/Kg), 5 min prior to [^123I]-CLINME (0.7 MBq, 10 pmoles in 0.1 mL of 0.9% saline), via the tail vein, to 8–10-week-old male SD rats.
The drugs were dissolved in dimethyl sulfoxide/saline (1 : 5) and injected intravenously 5 min prior to [^123I]-CLINME. Groups of rats (n = 3-4) were sacrificed by CO2 administration followed by cervical fracture 30 min after administration of [^123I]-CLINME and peripheral organs (liver, spleen, lung, heart, kidney, and adrenals), blood, olfactory bulbs, and the remainder of the brain were removed. The radioactivity concentrations were calculated as described previously. Results were analysed by one-way analysis of variance (ANOVA) followed by Tukey's post hoc test for comparing the tissue radioactivity concentrations in the treated animals (n = 3-4) and in the controls (n = 6). The criterion for significance was P < 0.05.

[2] = molecular target: central benzodiazepine receptor (CBR); assay: In vitro binding assay, central benzodiazepine receptor; conditions: membranes from kidney and brain cortex; read-out: inhibition constant for the CBR
Procedure: (§1) […] (IC50) of CLINME for the TPSO and for the central benzodiazepine receptor (CBR) was determined as described previously. The IC50 values were converted to the inhibition constant, Ki, using Cheng-Prusoff equation.

[3] = molecular target: T1, TSPO; assay: In vitro binding assay, TSPO, [^3H]-Ro 5-4864; set-up: from tissue
Procedure: as §1

[4] = Lipophilicity, log P estimated from HPLC retention times; assay type: physicochemical; conditions: pH 7.5
From the text: The log P values were estimated by comparing HPLC retention times of test compounds with retention times of standards having known log P values as described.

[5] = molecular target: T1, TSPO; assay: In vitro autoradiography with [^125I]-CLINME on lesioned brain tissue; assay type: binding, SD rats; set-up: from tissue; host or cells: male Sprague-Dawley rats: peripheral organs and brain in vivo; AMPA-lesioned striatum; brain sections; conditions: 20 μM drug, 16 nM [^125I]-CLINME
[6] = molecular target: T1, TSPO; assay: In vitro binding assay, TSPO, [^3H]-PK11195; set-up: from tissue
Procedure: as §1

[7] = tested on: TPSO; conditions: rats, dose of 5 mg/Kg; cited from earlier work

Row | SMILES | decrease of [^123I]-CLINME uptake in the heart [1] [%] | decrease of [^123I]-CLINME uptake in the kidney [1] [%] | decrease of [^123I]-CLINME uptake in the lungs [1] [%] | decrease of [^123I]-CLINME uptake in the olfactory bulbs [1] [%] | increase of [^123I]-CLINME uptake in the blood [1] [%] | Ki [2] [nM] | Ki [3] [nM] | chromatographic logP [4] | melting point [°C] | effect of coincubation on the differential (lesioned vs contralateral) binding of [^125I]-CLINME [5] | Ki [6] [nM] | selectivity for the TPSO over the CBR ([6]; in vitro) [fold] | block of the uptake of [^123I]-PK11195 in the adrenals [7] [%] | chromatographic logP ([4]; HPLC retention times compared with standards of known log P)
1 | CCN(C)C(=O)Cc1c(-c2ccc(I)cc2)nc2ccc(Cl)cn12 [CLINME, 2-(6-Chloro-2-(4-iodophenyl)imidazo[1,2-a]pyridin-3-yl)-N-ethyl-N-methylacetamide] | 86 | 71 | 76 | 38 | 45 | 183 ± 20 | 4.5 ± 0.6 | 3.27 | 65 to 67 | eliminated | 1.6 ± 0.2 | 110 | – | –
2 | CCC(C)N(C)C(=O)c1cc2ccccc2c(-c2ccccc2Cl)n1 (centres unmarked) [PK11195] | 87 | 72 | 81 | 36 | 29 | – | – | – | – | eliminated | – | – | 85 | 3.35

— paper PMC4496498, “Radiosynthesis, In Vivo Biological Evaluation, and Imaging of Brain Lesions with [^123I]-CLINME, a New SPECT Tracer for the Translocator Protein” (Disease Markers, 2015)
